Laboratory results: ChEMBL document CHEMBL3885861, “Open TG-GATES”

Species: Rattus norvegicus
Test: Open TG-GATES - Regimen: Single
Assay type: toxicity, organism-based, Sprague-Dawley
Design: regimen Single, gender Male, age 6 weeks
Conditions: in vivo, iv, route intravenous injection; for KIDNEY_L / KIDNEY_R / KIDNEY_TOTAL: tissue Kidney; for LIVER: tissue Liver; for ALP / ALT / AST / BUN / CRE / DBIL / GLC / IP / K / PL / RALB / TBIL / TC / TG / TP / gamma-GTP / LDH / Na: tissue Plasma
[1] = 0 mg/kg, 3 h, dose level Control
[2] = 0 mg/kg, 3 h, tissue Blood, dose level Control
[3] = 0 mg/kg, 6 h, dose level Control
[4] = 0 mg/kg, 6 h, tissue Blood, dose level Control
[5] = 0 mg/kg, 9 h, dose level Control
[6] = 0 mg/kg, 9 h, tissue Blood, dose level Control
[7] = 0 mg/kg, 24 h, dose level Control
[8] = 0 mg/kg, 24 h, tissue Blood, dose level Control

CARBOPLATIN
TERMINAL_BW [1]: 198.4 g
Bas [2]: 0%
Eos [2]: 0.4%
Fbg [2]: 277.4 mg/dL
Lym [2]: 80%
MCH [2]: 21.1 pg
MCHC [2]: 32.1%
MCV [2]: 65.9 fL
Mono [2]: 2.2%
Neu [2]: 16.2%
PT [2]: 16 s
Plat [2]: 125.4 x10_4/uL
RBC [2]: 633.2 x10_4/ul
Ret [2]: 6.4%
WBC [2]: 107.8 x10_2/uL
KIDNEY_L [1]: 0.9 g
KIDNEY_R [1]: 0.9 g
KIDNEY_TOTAL [1]: 1.8 g
LIVER [1]: 9.1 g
ALP [1]: 1848.6 IU/L
ALT [1]: 47 IU/L
AST [1]: 86.2 IU/L
BUN [1]: 13.6 mg/dL
CRE [1]: 0.2 mg/dL
DBIL [1]: 0 mg/dL
GLC [1]: 197.2 mg/dL
IP [1]: 8.3 mg/dL
K [1]: 3.9 meq/L
PL [1]: 127.8 mg/dL
RALB [1]: 3 g/dL
TBIL [1]: 0.012 mg/dL
TC [1]: 71.8 mg/dL
TG [1]: 43 mg/dL
TP [1]: 5.5 g/dL
gamma-GTP [1]: 1.2 IU/L
TERMINAL_BW [3]: 200.5 g
APTT [4]: 24.3 s
Bas [4]: 0%
Eos [4]: 0.8%
Fbg [4]: 274.2 mg/dL
Lym [4]: 80.8%
MCV [4]: 64 fL
Mono [4]: 2.6%
Neu [4]: 15.4%
PT [4]: 16.1 s
Plat [4]: 119.1 x10_4/uL
RBC [4]: 645.6 x10_4/ul
Ret [4]: 6.5%
WBC [4]: 98 x10_2/uL
KIDNEY_L [3]: 0.9 g
KIDNEY_R [3]: 0.9 g
KIDNEY_TOTAL [3]: 1.8 g
LIVER [3]: 8.5 g
ALP [3]: 1354.4 IU/L
AST [3]: 77 IU/L
BUN [3]: 11.4 mg/dL
CRE [3]: 0.2 mg/dL
DBIL [3]: 0 mg/dL
GLC [3]: 180.6 mg/dL
IP [3]: 9.3 mg/dL
K [3]: 4.4 meq/L
LDH [3]: 202.4 IU/L
PL [3]: 128 mg/dL
RALB [3]: 2.9 g/dL
TBIL [3]: 0.01 mg/dL
TC [3]: 74.2 mg/dL
TG [3]: 74.2 mg/dL
TP [3]: 5.3 g/dL
gamma-GTP [3]: 1.4 IU/L
TERMINAL_BW [5]: 195.2 g
APTT [6]: 24.6 s
Bas [6]: 0%
Eos [6]: 0.6%
Fbg [6]: 296.4 mg/dL
Hb [6]: 13 g/dL
Lym [6]: 77.2%
MCHC [6]: 31.9%
MCV [6]: 64.4 fL
Mono [6]: 2%
Neu [6]: 19.8%
PT [6]: 16 s
Plat [6]: 121.6 x10_4/uL
RBC [6]: 635.2 x10_4/ul
Ret [6]: 6.3%
WBC [6]: 80.5 x10_2/uL
KIDNEY_L [5]: 0.9 g
KIDNEY_R [5]: 0.9 g
KIDNEY_TOTAL [5]: 1.8 g
LIVER [5]: 8.2 g
ALP [5]: 1521.4 IU/L
ALT [5]: 38.8 IU/L
AST [5]: 75.2 IU/L
CRE [5]: 0.2 mg/dL
DBIL [5]: 0 mg/dL
GLC [5]: 182.2 mg/dL
IP [5]: 9.7 mg/dL
K [5]: 4.3 meq/L
LDH [5]: 155 IU/L
Na [5]: 140.4 meq/L
PL [5]: 123.6 mg/dL
RALB [5]: 2.9 g/dL
TBIL [5]: 0.008 mg/dL
TC [5]: 72.4 mg/dL
TG [5]: 57.2 mg/dL
TP [5]: 5.3 g/dL
gamma-GTP [5]: 1 IU/L
TERMINAL_BW [7]: 214.9 g
APTT [8]: 23.2 s
Bas [8]: 0%
Eos [8]: 1%
Fbg [8]: 280.2 mg/dL
Lym [8]: 82.8%
MCHC [8]: 32.1%
MCV [8]: 63 fL
Mono [8]: 2.4%
PT [8]: 16.6 s
Plat [8]: 124.1 x10_4/uL
RBC [8]: 648.4 x10_4/ul
Ret [8]: 5.2%
WBC [8]: 108.2 x10_2/uL
KIDNEY_L [7]: 1 g
KIDNEY_R [7]: 1 g
KIDNEY_TOTAL [7]: 2 g
LIVER [7]: 9.7 g
ALP [7]: 1592.8 IU/L
ALT [7]: 42.2 IU/L
AST [7]: 73 IU/L
BUN [7]: 16.6 mg/dL
CRE [7]: 0.2 mg/dL
DBIL [7]: 0 mg/dL
GLC [7]: 183 mg/dL
IP [7]: 7.2 mg/dL
K [7]: 4.5 meq/L
LDH [7]: 175 IU/L
Na [7]: 140.4 meq/L
PL [7]: 133.4 mg/dL
RALB [7]: 2.9 g/dL
TBIL [7]: 0.006 mg/dL
TC [7]: 69.6 mg/dL
TG [7]: 84.4 mg/dL
TP [7]: 5.4 g/dL
gamma-GTP [7]: 1.2 IU/L
TERMINAL_BW (10 mg/kg, 3 h, dose level Low): 205.7 g
